# Assay results: patent US10258687B2, “Development of methods for production of a whole virus vaccine candidate stock and novel adaptive mutations in hepatitis C virus” (Hvidovre Hospital, priority 2014, dated 2019)
# Several values for one entry are separate records, joined by “and”; a condition that tells them apart may be missing. Equal entries are not always repeated. Structures can show the parent of a compound that is named as a salt.
# Experiments:
# [1] = test system: Huh7.5 cells; experiment: Infectivity of virus diluted in different media (FIG. 7); type: cell-based, Human; conditions: virus diluted in AEM prior to infection
# Method: (A-C) Cells were incubated with virus mixes for 3 hours. After incubation, fresh DMEM+10% FBS was added to all wells. Cells were incubated for 48 hours before they were fixed, stained and the number of single HCV NS5A positive cells per well was determined by automated counting as described in Materials and Methods. Error bars represent SEM of triplicates. For (B), the mean infectivity (HCV NS5A positive cells/well) of triplicate wells of the reference culture (DMEM+10% FBS, black bar) was set to 100%. The number of HCV NS5A positive cells/experimental well was related to this mean to calculate % infectivity relative to the reference culture.
# [2] = test system: Huh7.5 cells; experiment: Supernatant infectivity titration (FFU assay) after transfection, infection or serial passage, Example 2; type: cell-based, Human; conditions: both kinetics experiments (MOIs of 0.003 and 0.0003)
# Method: For transfection of Huh7.5 cells, 350,000 cells/well were seeded in 6-well plates (Nunc) and incubated for 24 hours. Plasmids (10 μg) were linearized by over-night digestion with XbaI (New England Biolabs). Linearized plasmids were purified using Wizard® SV Gel and PCR Clean-Up System (Promega). In vitro transcription was performed using T7 RNA polymerase (Promega) for 2 hours at 37° C. Transfection was performed by incubating 5 μL lipofectamine 2000 (Invitrogen) and the RNA transcripts in 500 μL serum-free Opti-MEM (Gibco/Invitrogen) for 20 minutes at room temperature. RNA-lipofectamine complexes were added to the pre-plated cells and incubated for 16-24 hours. Transfection efficiencies and culture spread were determined by HCV NS5A immunostaining (see below). […]
# For infection of Huh7.5 cells in culture flasks, cells were seeded and incubated for 24 hours. When cells were evaluated to be ˜80% confluent, they were infected at a multiplicity of infection (MOI) of either 0.003 or 0.0003 for 3 hours (see Figure legends for details). […] Infection spread was monitored by HCV NS5A immunostaining (see below). […] For serum-free cultures, cells were infected in complete DMEM as described above and spread was monitored by NS5A immunostaining. […]
# Culture supernatant infectivity titers were determined as Focus Forming Units (FFU)/mL. […]
# [3] = serial passage by others; cited from earlier work
# [4] = test system: clathrin-mediated endocytosis; experiment: Chlorpromazine inhibition of HCVcc and sf-HCVcc entry; type: cell-based, Human; conditions: genotype 1-6 HCVcc and sf-HCVcc, cells pre-treated, up to 10 μg/mL
# Method: FIG. 11: Effect of chlorpromazine treatment on HCVcc and sf-HCVcc entry. (A-G) Chlorpromazine was diluted in DMEM+10% FBS to the concentrations indicated and then added to Huh7.5 cells, plated the previous day onto poly-D-lysine coated 96-well plates, and incubated for 30 minutes. HCVcc (black bars) were diluted in DMEM+10% FBS and sf-HCVcc (grey bars) were diluted in AEM+10% FBS and added to cultures. After 6 hours incubation, chlorpromazine-virus mixes were removed and DMEM+10% FBS was added. Cells were fixed 48 hours post infection and stained, and the number of single HCV NS5A positive cells per well was determined by automated counting as described in Materials and Methods. The HCV Core-E2 sequences of all virus stocks used were determined by direct sequencing. Sequences were identical for HCVcc and sf-HCVcc of the same recombinant. Compared to the plasmid sequence, H77(1a) viruses had acquired amino acid change I348S and J4(1b) had acquired amino acid change V710L, both estimated to be present in the majority of viral genomes. The % blocking was calculated by relating counts of experimental wells to the mean count of six replicate wells with untreated control virus. […] The % viability was calculated by relating absorbance at 490 nm determined for chlorpromazine treated cultures to the mean absorbance of three replicate untreated cultures. […]
# [5] = test system: Huh7.5 cells; experiment: Chlorpromazine cytotoxicity (cell viability assay); type: cell-based, Human; conditions: 6 hours treatment
# Method: For determination of Huh7.5 cell viability in DMEM+10% FBS versus AEM, we plated 6,000 cells per well of poly-D-lysine coated 96-well plates in DMEM+10% FBS. The following day, medium was removed and cells were incubated in DMEM+10% FBS or AEM for 48 hours. Then, cell viability was determined using the CellTiter 96® AQueous One Solution Cell Proliferation Assay kit (Promega) according to the manufacturer's instructions. The % viability was calculated by relating absorbance at 490 nm determined for 10 AEM cultures to the mean absorbance of 10 replicate DMEM+10% FBS cultures. For determination of chlorpromazine cytotoxicity, chlorpromazine was diluted in DMEM+10% FBS as specified and then added to 6,000 Huh 7.5 cells/well, plated the previous day in poly-D-lysine coated 96-well plates. Cells were incubated for 6 hours before chlorpromazine was removed and DMEM+10% FBS was added. Cell viability was determined 6 and 48 hours post-treatment using the CellTiter 96® AQueous One Solution Cell Proliferation Assay kit. The % viability was calculated by relating absorbance at 490 nm determined for chlorpromazine treated cultures to the mean absorbance of at least three replicate untreated cultures.
Molecule,infectivity using AEM during the viral infection step (in words) [1],peak infectivity titers [2],peak infectivity titers of adapted stocks [3],blocking rates [4],highest concentration not resulting in cytotoxic effects [5] [µg/mL]
J6/JFH1 [J6(2a)],infectivity was also reduced,4.8 log 10 FFU/mL and 4.9 log 10 FFU/mL,8 log 10 TCID50/mL and ~6.5 log 10 TCID50/mL,,
"CN(C)CCCN1c2ccccc2Sc2ccc(Cl)cc21 [chlorpromazine, chlorpromazine hydrochloride]",,,,up to 93%,10
